The results in this text go back to patent publication US7718767B2, “3-ether and 3-thioether substituted cyclosporin derivatives for the treatment and prevention of hepatitis C infection” (Scynexis, Inc., priority 2006, dated 2010).

The structures appear in SMILES notation. Bounds are passed on as bounds.

Series [1] relates to HCV RNA replicon ET. The experiment in a line: HCV RNA replicon luciferase reporter assay, antiviral activity. Type of series: cell-based. Particulars: ET replicon cells, 72 h, LUC activity. (In antiviral work, replicon cells carry a viral genome segment that copies itself.)
Series [2] concerns human hepatoma cell line ET. The experiment in a line: Cytotoxicity in the replicon cell line, colorimetric assay of cell numbers. Particulars: ET cells, 72 h. The source says:
Compounds were examined in the human hepatoma cell line ET (lub ubi heo/ET), a HCV RNA replicon containing a stable luciferase (LUC) reporter. The HCV RNA replicon ET contains the 5′ end of HCV (with the HCV Internal Ribosome Entry Site (IRES) and the first few amino acids of the HCV core protein) which drives the production of a firefly luciferase (LUC), ubiquitin, and neomycin phosphotransferase (NeoR) fusion protein. Ubiquitin cleavage releases the LUC and NeoR proteins. The EMCV IRES element controls the translation of the HCV […] NS3-NS5. The NS3 protein cleaves the HCV polyprotein to release the mature NS3, NS4A, NS4B, NS5A and NS5B proteins that are required for HCV replication. At the 3′ end of the replicon is the authentic 3′ NTR of HCV. The activity of the LUC reporter is directly proportional to HCV replication levels and positive-control antiviral compounds produce a reproducible antiviral response using the LUC endpoint.
The compounds were dissolved in DMSO at five half-log concentrations each, ranging from either 0.02 to 2.0 μM, 0.03 to 3 μM, […], or 1 to 100 μM. Subconfluent cultures of the ET line were plated out into 96 well plates dedicated for the analysis of cell numbers (cytotoxicity) or antiviral activity and the next day the compounds were added to the appropriate wells. The cells were processed 72 h later when the cells were still subconfluent. […] The activity of the LUC reporter is directly proportional to HCV RNA levels in the human cell line. The HCV-replicon assay was validated in parallel experiments using interferon-alpha-2b as a positive control.

The subject of series [3] is HIV-1IIIB. The series can be described thus: HIV MTS cytoprotection assay in CEM-SS cells. Type of series: cell-based, human immunodeficiency virus-1. Particulars: 6 days post-infection, concentration inhibiting virus replication by 50%.
Series [4] relates to CEM-SS cells. The experiment in a line: Compound cytotoxicity in the HIV MTS assay (cells plus drug only). Type of series: cell-based, human. The following applies: 50% inhibition of cell growth. The method, then:
In this MTS cytoprotection assay, each experiment included cell control wells (cells only), virus control wells (cells plus virus), drug toxicity wells (cells plus drug only), drug colorimetric control wells (drug only) as well as experimental wells (drug plus cells plus virus). […] HIV-1RF was added to each well in a volume of 50 μL, the amount of virus determined to give approximately 90% cell killing at 6 days post-infection. At assay termination, assay plates were stained with the soluble tetrazolium-based dye MTS (CellTiter 96 Reagent, Promega) to determine cell viability and quantify compound toxicity. MTS is metabolized by the mitochondria enzymes of metabolically active cells to yield a soluble formazan product, providing a quantitative analysis of cell viability and compound cytotoxicity. The assay was validated in parallel experiments using Zidovudine (3′-azido-3′-deoxythymidine or AZT) as a positive control.
Background: Tetrazolium assays rely on reduction of a dye to a coloured formazan, in cell work by metabolically active cells.

The EC50 is the concentration giving half of the maximal effect. Lower therefore signals higher potency in that assay. What is called EC90 is the concentration needed for an effect of 90%. Lower therefore signals an effect from little substance. Broadly, the IC50 is the point on the concentration scale where inhibition reaches its midpoint. By IC90 is commonly meant the concentration needed for an effect of 90%. As for `C/C=C/C[C@@H](C)[C@@H](O)[C@H]1C(=O)N[C@@H](CC)C(=O)N(C)[C@H](SCCOC)C(=O)N(C)[C@@H](CC(C)C)C(=O)N[C@@H](C(C)C)C(=O)N(C)[C@@H](CC(C)C)C(=O)N[C@@H](C)C(=O)N[C@H](C)C(=O)N(C)[C@@H](CC(C)C)C(=O)N(C)[C@@H](CC(C)C)C(=O)N(C)[C@@H](C(C)C)C(=O)N1C` [R, 3-[(2-methoxy)ethylthio]cyclosporin], the EC50 in series [1] (concentration reducing viral replication by 50%) stood at 0.31 µM; in series [3], 0.5 µM. For the same compound, the 90% effect level in series [1] (concentration reducing viral replication by 90%) (EC90) was put at 0.59 µM. Moreover, the IC50 in series [2] (read-out: Cytotoxicity IC50, concentration inhibiting cell viability by 50%) was determined as 11.1 µM; in series [4] it was 17.3 µM. For the same compound, the IC90 in series [2] (read-out: Cytotoxicity IC90, concentration inhibiting cell viability by 90%) was greater than 20 µM.
